The target in this assay is SARS-CoV-2 Papain-Like Protease (PLpro) (Severe acute respiratory syndrome coronavirus 2 (2019-nCoV) (SARS-CoV-2), UniProt P0DTD1). The assay is described as follows: biochemical. To be noted: PLpro enzymatic fluorescence assay; class symbols; read-out: PLpro IC50.
Turning to `Cc1ccc(OC[C@@H]2CCN2C)cc1C(=O)NC1(c2cc(-c3ccc(CN4CCC(F)(F)C4)s3)cc3ncccc23)CC1` [Compound 805, (S)—N-(1-(7-(5-((3,3-Difluoropyrrolidin-1-yl)methyl)thiophen-2-yl)quinolin-5-yl)cyclopropyl)-2-methyl-5-((1-methylazetidin-2-yl)methoxy)benzamide], the IC50 is under 100 nM. Turning to `CC(=O)c1ncc(-c2cc(C3(NC(=O)c4cc(OC[C@@H]5CCN5C)ccc4C)CC3)c3cccnc3c2)o1` [Compound 806, (S)-N-(1-(7-(2-Acetyloxazol-5-yl)quinolin-5-yl)cyclopropyl)-2-methyl-5-((1-methylazetidin-2-yl)methoxy)benzamide], the IC50 was under 100 nM. Regarding `Cc1ccc(-c2cc(C3(NC(=O)c4cc(OC[C@@H]5CCN5C)ccc4C)COC3)c3cccnc3c2)o1` [Compound 808], the IC50 was under 100 nM. With `Cc1ccc2c(C3(NC(=O)c4cc(OC[C@@H]5CCN5C)ccc4C)CC3)cc(O)cc2n1` [Compound 809, (S)-N-(1-(7-Hydroxy-2-methylquinolin-5-yl)cyclopropyl)-2-methyl-5-((1-methylazetidin-2-yl)methoxy)benzamide] the figure was under 100 nM. In the case of `Cc1ccc2c(C3(NC(=O)c4cc(OC[C@@H]5CCN5C)ccc4C)CC3)cc(N3CC(C(F)(F)F)C3)cc2n1` [Compound 810, (S)-2-Methyl-N-(1-(2-methyl-7-(3-(trifluoromethyl)azetidin-1-yl)quinolin-5-yl)cyclopropyl)-5-((1-methylazetidin-2-yl)methoxy)benzamide], the IC50 is under 100 nM. For the molecule `COC1CN(c2cc(C3(NC(=O)c4cc(OC[C@@H]5CCN5C)ccc4C)CC3)c3ccc(C)nc3c2)C1` [Compound 811, (S)—N-(1-(7-(3-Methoxyazetidin-1-yl)-2-methylquinolin-5-yl)cyclopropyl)-2-methyl-5-((1-methylazetidin-2-yl)methoxy)benzamide], the half-maximal inhibitory concentration (IC50) was under 100 nM. Regarding `Cc1nc(Cl)c(-c2cc(C3(NC(=O)c4cc(OC[C@@H]5CCN5C)ccc4C)CC3)c3cccnc3c2)s1` [Compound 812, (S)-N-(1-(7-(4-Chloro-2-methylthiazol-5-yl)quinolin-5-yl)cyclopropyl)-2-methyl-5-((1-methylazetidin-2-yl)methoxy)benzamide], the IC50 was under 100 nM.

Take `C=Cc1cc(C2(NC(=O)c3cc(OC[C@@H]4CCN4C)ccc3C)CC2)c2ccc(C)nc2c1` [Compound 813, (S)-2-Methyl-N-(1-(2-methyl-7-vinylquinolin-5-yl)cyclopropyl)-5-((1-methylazetidin-2-yl)methoxy)benzamide]: the IC50 was under 100 nM. Take `Cc1ncc(-c2cc(C3(NC(=O)c4cc(OC[C@@H]5CCN5C)ccc4C)CC3)c3cccnc3c2Cl)s1` [Compound 814, (S)-N-(1-(8-Chloro-7-(2-methylthiazol-5-yl)quinolin-5-yl)cyclopropyl)-2-methyl-5-((1-methylazetidin-2-yl)methoxy)benzamide]: the IC50 was under 100 nM. `Cc1ccc2c(C3(NC(=O)c4cc(OC[C@@H]5CCN5C)ccc4C)CC3)cc(CCC(F)(F)F)cc2n1` [Compound 815, (S)-2-Methyl-N-(1-(2-methyl-7-(3,3,3-trifluoropropyl)quinolin-5-yl)cyclopropyl)-5-((1-methylazetidin-2-yl)methoxy)benzamide]: the IC50 is under 100 nM. With `Cc1ccc2c(C3(NC(=O)c4cc(OC[C@@H]5CCN5C)ccc4C)CC3)cc(N3CC(F)C3)cc2n1` [Compound 816, (S)—N-(1-(7-(3-Fluoroazetidin-1-yl)-2-methylquinolin-5-yl)cyclopropyl)-2-methyl-5-((1-methylazetidin-2-yl)methoxy)benzamide] the figure was under 100 nM; with `COc1cc(C2(NC(=O)c3cc(OC[C@@H]4CCN4C)ccc3C)CC2)c2ccc(C(F)(F)F)nc2c1` [Compound 817, (S)-N-(1-(7-Methoxy-2-(trifluoromethyl)quinolin-5-yl)cyclopropyl)-2-methyl-5-((1-methylazetidin-2-yl)methoxy)benzamide], under 100 nM; with `Cc1ccc(OC[C@@H]2CCN2C)cc1C(=O)NC1(c2cc(N(C)S(C)(=O)=O)cc3ncccc23)CC1` [Compound 818, (S)-2-Methyl-5-((1-methylazetidin-2-yl)methoxy)-N-(1-(7-(N-methylmethylsulfonamido)quinolin-5-yl)cyclopropyl)benzamide], under 100 nM. As to `Cc1ccc2c(C3(NC(=O)c4cc(OC[C@@H]5CCN5C)ccc4C)CC3)cc(N(C)S(C)(=O)=O)cc2n1` [Compound 819, (S)-2-Methyl-N-(1-(2-methyl-7-(N-methylmethylsulfonamido)quinolin-5-yl)cyclopropyl)-5-((1-methylazetidin-2-yl)methoxy)benzamide], the IC50 was under 100 nM. In the case of `CC(=O)c1ccc(-c2cc(C3(NC(=O)c4cc(OC[C@@H]5CCN5C)ccc4C)COC3)c3cccnc3c2)s1` [Compound 821, (S)-N-(3-(7-(5-Acetylthiophen-2-yl)quinolin-5-yl)oxetan-3-yl)-2-methyl-5-((1-methylazetidin-2-yl)methoxy)benzamide], the IC50 was under 100 nM. With `Cc1ccc2c(C3(NC(=O)c4cc(OC[C@@H]5CCN5C)ccc4C)CC3)cc(OCF)cc2n1` [Compound 823, (S)—N-(1-(7-(Fluoromethoxy)-2-methylquinolin-5-yl)cyclopropyl)-2-methyl-5-((1-methylazetidin-2-yl)methoxy)benzamide] the figure was under 100 nM; with `CC#Cc1cc(C2(NC(=O)c3cc(OC[C@@H]4CCN4C)ccc3C)CC2)c2ccc(C)nc2c1` [Compound 824, (S)-2-Methyl-N-(1-(2-methyl-7-(prop-1-yn-1-yl)quinolin-5-yl)cyclopropyl)-5-((1-methylazetidin-2-yl)methoxy)benzamide], under 100 nM; with `Cc1ccc2c(C3(NC(=O)c4cc(OC[C@@H]5CCN5C)ccc4C)CC3)cc(NS(C)(=O)=O)cc2n1` [Compound 825, (S)-2-Methyl-N-(1-(2-methyl-7-(methylsulfonamido)quinolin-5-yl)cyclopropyl)-5-((1-methylazetidin-2-yl)methoxy)benzamide], under 100 nM. With `Cc1ccc2c(C3(NC(=O)c4cc(OC[C@@H]5CCN5C)ccc4C)CC3)cc(NCC(F)(F)F)cc2n1` [Compound 826, (S)-2-Methyl-N-(1-(2-methyl-7-((2,2,2-trifluoroethyl)amino)quinolin-5-yl)cyclopropyl)-5-((1-methylazetidin-2-yl)methoxy)benzamide] the figure was under 100 nM. “(S)-2-Methyl-N-(1-(2-methyl-7-((2,2,2-trifluoroethyl)amino)quinolin-5-yl)cyclopropyl)-5-((1-methylazetidin-2-yl)methoxy)benzamide [Compound 807]”: the IC50 is under 100 nM. As for “(S)-5-(Azetidin-2-ylmethoxy)-2-methyl-N-(1-(7-morpholinoquinolin-5-yl)cyclopropyl)benzamide [Compound 712]”, the IC50 was under 100 nM. “(S)—N-(1-(7-Methoxy-2-methylquinolin-5-yl)cyclopropyl)-2-methyl-5-((1-(methyl-d3)azetidin-2-yl)methoxy)benzamide [Compound 798]”: the IC50 was under 100 nM.
